Laboratory results published in article PMC5074515 (PLoS ONE, 2016).
Values after ≈ are worked out from the molar mass of the structure shown. Like-named read-outs stand apart in the source and are kept apart here.

What was measured:
Mtb H37Ra (ATCC 25177) = test: In vitro screen versus Mtb H37Ra (Alamar blue microdilution broth assay, MIC99); assay type: cell-based, M. tuberculosis; details: Mycobacterium tuberculosis; lowest drug concentration that completely inhibited growth; read-out: Mtb H37Ra MIC99
Experimental: The initial screening set and selected other compounds were tested for their inhibitory activity against Mtb H37Ra (ATCC 25177) and MAC NJ211 strains. Screening was performed at 1.28 and 12.8 μg/mL in Middlebrook 7H9 broth supplemented with 0.2% glycerol and ADC enrichment using a colorimetric (Alamar blue) microdilution broth assay by reported methods.[15]

Mtb H37Rv = test: In vitro qHTS assay against Mtb H37Rv (IC90); assay type: cell-based, M. tuberculosis; details: for IC90 / Mtb H37Rv IC90: concentration that inhibits bacterial growth by 90%; for IC90: read-out: Mtb H37Rv IC90
[1] = Mycobacterium tuberculosis, H37RV

Compound | IC90 (Mtb H37Rv; [1]) | melting point | other results
CC(=O)O[C@H]1C(=O)[C@@]2(C)[C@H]([C@H](OC(=O)c3ccccc3)[C@]3(O)C[C@H](OC(=O)[C@H](O)[C@@H](NC(=O)c4ccccc4)c4ccccc4)C(C)=C1C3(C)C)[C@]1(OC(C)=O)CO[C@@H]1C[C@@H]2O [Compound 14, Taxol] | – | – | MIC99 (Mtb H37Ra (ATCC 25177)): 16 µg/mL (≈ 18.7 µM)
CCN(CC)CCNC(=O)CC1=C(C)/C(=C/c2ccc(SC)cc2)c2ccc(F)cc21 [Compound 20, (Z)-N-(2-(Diethylamino)ethyl)-2-(5-fluoro-2-methyl-1-(4-(methylthio)benzylidene)-1H-inden-3-yl)acetamide] | 3.59 ± 0.06 µM | 98 to 100 °C | –
CCN(CC)CCCNC(=O)CC1=C(C)/C(=C/c2ccc(SC)cc2)c2ccc(F)cc21 [Compound 21, (Z)-N-(3-(Diethylamino)propyl)-2-(5-fluoro-2-methyl-1-(4-(methylthio)benzylidene)-1H-inden-3-yl)acetamide] | 4.36 ± 0.07 µM | 78 to 81 °C | –
CSc1ccc(/C=C2/C(C)=C(CC(=O)NCCCN3CCCCC3C)c3cc(F)ccc32)cc1 (stereo not shown) [Compound 25, (Z)-2-(5-Fluoro-2-methyl-1-(4-(methylthio)benzylidene)-1H-inden-3-yl)-N-(3-(2-methylpiperidin-1-yl)propyl)acetamide] | 5.41 ± 0.11 µM | 84 to 86 °C | –
CSc1ccc(/C=C2/C(C)=C(CC(=O)NCCC3CCCN3C)c3cc(F)ccc32)cc1 (stereo not shown) [Compound 27, (Z)-2-(5-Fluoro-2-methyl-1-(4-(methylthio)benzylidene)-1H-inden-3-yl)-N-(2-(1-methylpyrrolidin-2-yl)ethyl)acetamide] | 4.34 ± 0.16 µM | – | –
CCN1CCC[C@H]1CNC(=O)CC1=C(C)/C(=C/c2ccc(SC)cc2)c2ccc(F)cc21 [Compound 28, (S,Z)-N-((1-Ethylpyrrolidin-2-yl)methyl)-2-(5-fluoro-2-methyl-1-(4-(methylthio)benzylidene)-1H-inden-3-yl)acetamide] | 3.98 ± 0.03 µM | 74 to 76 °C | –
CSc1ccc(/C=C2/C(C)=C(CC(=O)N3CCC[C@H]3CN3CCCC3)c3cc(F)ccc32)cc1 [Compound 29, (S,Z)-2-(5-Fluoro-2-methyl-1-(4-(methylthio)benzylidene)-1H-inden-3-yl)-1-(2-(pyrrolidin-1-ylmethyl)pyrrolidin-1-yl)ethanone] | 4.06 ± 0.03 µM | 101 to 104 °C | –
CSc1ccc(/C=C2/C(C)=C(CC(=O)N3CCC(N4CCCCC4)CC3)c3cc(F)ccc32)cc1 [Compound 30, (Z)-1-([1,4'-Bipiperidin]-1'-yl)-2-(5-fluoro-2-methyl-1-(4-(methylthio)benzylidene)-1H-inden-3-yl)ethanone] | 2.75 ± 0.02 µM | 145 to 148 °C | –
CSc1ccc(/C=C2/C(C)=C(CC(=O)N3CCN(CCCN(C)C)CC3)c3cc(F)ccc32)cc1 [Compound 31, (Z)-1-(4-(3-(Dimethylamino)propyl)piperazin-1-yl)-2-(5-fluoro-2-methyl-1-(4-(methylthio)benzylidene)-1H-inden-3-yl)ethanone] | 9.55 ± 0.31 µM | 131 to 134 °C | –
CSc1ccc(/C=C2/C(C)=C(CC(=O)N3CCN(c4ccncc4)CC3)c3cc(F)ccc32)cc1 [Compound 32, (Z)-2-(5-Fluoro-2-methyl-1-(4-(methylthio)benzylidene)-1H-inden-3-yl)-1-(4-(pyridin-4-yl)piperazin-1-yl)ethanone] | 3.07 ± 0.04 µM | 171 to 174 °C | –
CSc1ccc(/C=C2/C(C)=C(CC(=O)NCCCn3ccnc3)c3cc(F)ccc32)cc1 [Compound 33, (Z)-N-(3-(1H-Imidazol-1-yl)propyl)-2-(5-fluoro-2-methyl-1-(4-(methylthio)benzylidene)-1H-inden-3-yl)acetamide] | 1.18 ± 0.01 µM | 103 to 105 °C | –
CSc1ccc(/C=C2/C(C)=C(CC(=O)NCc3ccccc3)c3cc(F)ccc32)cc1 [Compound 34, (Z)-N-Benzyl-2-(5-fluoro-2-methyl-1-(4-(methylthio)benzylidene)-1H-inden-3-yl)acetamide] | > 100 µM | 171 to 174 °C | Mtb H37Rv IC90 (Mtb H37Rv): inactive
CSc1ccc(/C=C2/C(C)=C(CC(=O)NCc3ccco3)c3cc(F)ccc32)cc1 [Compound 36, (Z)-2-(5-Fluoro-2-methyl-1-(4-(methylthio)benzylidene)-1H-inden-3-yl)-N-(furan-2-ylmethyl)acetamide] | > 100 µM | 166 to 168 °C | Mtb H37Rv IC90 (Mtb H37Rv): inactive
COC(=O)[C@H](C)NC(=O)CC1=C(C)/C(=C/c2ccc(SC)cc2)c2ccc(F)cc21 [Compound 37, (S,Z)-Methyl 2-(2-(5-fluoro-2-methyl-1-(4-(methylthio)benzylidene)-1H-inden-3-yl)acetamido)propanoate] | 3.04 ± 0.1 µM | 151 to 154 °C | –
CC1=C(CC(=O)NCCN(C)C)c2cc(F)ccc2/C1=C\c1nc2ccccc2s1 [Compound 38, (Z)-2-(1-(Benzo[d]thiazol-2-ylmethylene)-5-fluoro-2-methyl-1H-inden-3-yl)-N-(2-(dimethylamino)ethyl)acetamide] | 4.75 ± 0.05 µM | 132 to 135 °C | –
CC1=C(CC(=O)N(C)CCN(C)C)c2cc(F)ccc2/C1=C\c1nc2ccccc2s1 [Compound 39, (Z)-2-(1-(Benzo[d]thiazol-2-ylmethylene)-5-fluoro-2-methyl-1H-inden-3-yl)-N-(2-(dimethylamino)ethyl)-N-methylacetamide] | 9.97 ± 0.33 µM | 103 to 106 °C | –
CCN(CC)CCNC(=O)CC1=C(C)/C(=C/c2nc3ccccc3s2)c2ccc(F)cc21 [Compound 40, (Z)-2-(1-(Benzo[d]thiazol-2-ylmethylene)-5-fluoro-2-methyl-1H-inden-3-yl)-N-(2-(diethylamino)ethyl)acetamide] | 3.47 ± 0.04 µM | 127 to 130 °C | –
CC1=C(CC(=O)NCCN2CCCC2)c2cc(F)ccc2/C1=C\c1nc2ccccc2s1 [Compound 41, (Z)-2-(1-(Benzo[d]thiazol-2-ylmethylene)-5-fluoro-2-methyl-1H-inden-3-yl)-N-(2-(pyrrolidin-1-yl)ethyl)acetamide] | 6.7 ± 0.04 µM | – | –
CCN1CCC[C@H]1CNC(=O)CC1=C(C)/C(=C/c2nc3ccccc3s2)c2ccc(F)cc21 [Compound 42, (S,Z)-2-(1-(Benzo[d]thiazol-2-ylmethylene)-5-fluoro-2-methyl-1H-inden-3-yl)-N-((1-ethylpyrrolidin-2-yl)methyl)acetamide] | 5.46 ± 0.12 µM | 168 to 171 °C | –
CC1=C(CC(=O)N2CCC[C@H]2CN2CCCC2)c2cc(F)ccc2/C1=C\c1nc2ccccc2s1 [Compound 43, (S,Z)-2-(1-(Benzo[d]thiazol-2-ylmethylene)-5-fluoro-2-methyl-1H-inden-3-yl)-1-(2-(pyrrolidin-1-ylmethyl)pyrrolidin-1-yl)ethanone] | 3.68 ± 0.11 µM | 79 to 81 °C | –
CSc1ccc(/C=C2/C(C)=C(C(C)C(=O)NCCN(C)C)c3cc(F)ccc32)cc1 (stereo not shown) [Compound 44, (Z)-N-(2-(Dimethylamino)ethyl)-2-(5-fluoro-2-methyl-1-(4-(methylthio)benzylidene)-1H-inden-3-yl)propanamide] | 13.6 ± 0.89 µM | – | fold less active against Mtb H37Rv than desmethyl analog (Mtb H37Rv; 44 vs 18): 2 fold
CSc1ccc(/C=C2/C(C)=C(C(C)C(=O)N(C)CCN(C)C)c3cc(F)ccc32)cc1 (stereo not shown) [Compound 45, (Z)-N-(2-(Dimethylamino)ethyl)-2-(5-fluoro-2-methyl-1-(4-(methylthio)benzylidene)-1H-inden-3-yl)-N-methylpropanamide] | 5.95 ± 0.06 µM | – | –
CCN(CC)CCNC(=O)C(C)C1=C(C)/C(=C/c2ccc(SC)cc2)c2ccc(F)cc21 (stereo not shown) [Compound 46, (Z)-N-(2-(Diethylamino)ethyl)-2-(5-fluoro-2-methyl-1-(4-(methylthio)benzylidene)-1H-inden-3-yl)propanamide] | 4.19 ± 0.2 µM | 75 to 77 °C | –
CCCCN(CCCC)CCCNC(=O)C(C)C1=C(C)/C(=C/c2ccc(SC)cc2)c2ccc(F)cc21 (stereo not shown) [Compound 47, (Z)-N-(3-(Dibutylamino)propyl)-2-(5-fluoro-2-methyl-1-(4-(methylthio)benzylidene)-1H-inden-3-yl)propanamide] | 1.22 ± 0.04 µM | 121 to 124 °C | –
CNCCN(C)C(=O)C(C)C1=C(C)/C(=C/c2ccc(SC)cc2)c2ccc(F)cc21 (stereo not shown) [Compound 48, (Z)-2-(5-Fluoro-2-methyl-1-(4-(methylthio)benzylidene)-1H-inden-3-yl)-N-methyl-N-(2-(methylamino)ethyl)propanamide] | 2.11 ± 0.08 µM | – | fold more active against Mtb H37Rv than corresponding analog (Mtb H37Rv; 48 vs 23, 57 vs 56, 60 vs 24): 4 fold
CSc1ccc(/C=C2/C(C)=C(C(C)C(=O)NCCN3CCCCC3)c3cc(F)ccc32)cc1 (stereo not shown) [Compound 49, (Z)-2-(5-Fluoro-2-methyl-1-(4-(methylthio)benzylidene)-1H-inden-3-yl)-N-(2-(piperidin-1-yl)ethyl)propanamide] | 1.99 ± 0.06 µM | – | –
CCN1CCC[C@H]1CNC(=O)C(C)C1=C(C)/C(=C/c2ccc(SC)cc2)c2ccc(F)cc21 (stereo partly drawn) [Compound 51, N-(((S)-1-Ethylpyrrolidin-2-yl)methyl)-2-((Z)-5-fluoro-2-methyl-1-(4-(methylthio)benzylidene)-1H-inden-3-yl)propanamide] | 2.41 ± 0.04 µM | – | –
CSc1ccc(/C=C2/C(C)=C(C(C)C(=O)N3CCN(c4ccncc4)CC3)c3cc(F)ccc32)cc1 (stereo not shown) [Compound 55, (Z)-2-(5-Fluoro-2-methyl-1-(4-(methylthio)benzylidene)-1H-inden-3-yl)-1-(4-(pyridin-4-yl)piperazin-1-yl)propan-1-one] | 2.89 ± 0.09 µM | – | –
(Z)-N-(3-(Dibutylamino)propyl)-2-(5-fluoro-2-methyl-1-(4-(methylthio)benzylidene)-1H-inden-3-yl)acetamide [Compound 22] | – | – | IC90 (Mtb H37Rv): 0.85 µM
